Tests used:
Experiment in all cases: relative viability (nuclei count vs DMSO), 5 days (fraction); higher = more cells survive
[1] = compound: C#Cc1cccc(Nc2ncnc3cc(OC)c(OCCCCCCC(=O)NO)cc23)c1 [CUDC-101]
How it was run: (§1)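 Viability here means nuclei in treated wells divided by nuclei in vehicle wells, reported as the median across plates. Only plates with control CV below 25% and at least one doubling passed. Lung cancer cell lines in 1536-well plates were exposed to five √10-spaced library-drug doses for 5 days and counted from 4× Hoechst images in MetaXpress.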

[2] = compound: C1=CC=C2C(=C1)N=C(S2)C(C#N)C3=NC(=NC=C3)NCCC4=CN=CC=C4
How it was run: as §1

[3] = compound: COc1cc(N2CCC(N3CCN(C)CC3)CC2)ccc1Nc1ncc(Cl)c(Nc2ccccc2S(=O)(=O)C(C)C)n1 [NVP-TAE684]
How it was run: as §1

[4] = compound: COc1cc2/c(=N/c3ccc(Br)cc3F)nc[nH]c2cc1OCC1CCN(C)CC1 [Vandetanib]
How it was run: as §1

Cell Line	relative viability ([1]; 0.01 µM)	relative viability ([1]; 0.03162 µM)	relative viability ([1]; 0.1 µM)	relative viability ([1]; 0.3162 µM)	relative viability ([1]; 1 µM)	relative viability ([2]; 0.005 µM)	relative viability ([2]; 0.01581 µM)	relative viability ([2]; 0.05 µM)	relative viability ([2]; 0.1581 µM)	relative viability ([2]; 0.5 µM)	relative viability ([3]; 0.6325 µM)	relative viability ([3]; 2 µM)	relative viability ([4]; 0.02 µM)	relative viability ([4]; 0.06325 µM)	relative viability ([4]; 0.2 µM)	relative viability ([4]; 0.6325 µM)	relative viability ([4]; 2 µM)	relative viability ([3]; 0.2 µM)
NCI-H838	0.988	0.922	0.992	1.02	0.871	0.902	0.954	0.968	1.1	0.953	0.792	0.545	0.938	0.902	0.973	0.94	0.957	
ABC-1	0.95	0.978	0.938	0.812	0.453	0.974	0.826	1.08	1.07	0.835	0.624	0.537	0.827	0.917	0.844	0.908	0.628	0.969
NCI-H2228	1.02	1.23	0.946	1.09	1.07	0.839	1.12	0.962	1.17	0.956	0.36	0.29	1.04	0.983	0.836	1.12	0.809	0.632
NCI-H1793	0.95	0.707	0.825	0.92	0.613	0.716	0.906	0.852	1.05	0.925	0.875	0.816	1.01	0.821	0.833	0.765	0.781	0.826
NCI-H1563	0.968	0.869	1.06	0.917	0.893	0.778	0.944	0.899	0.995	0.946	0.95		0.973	1.07	0.989	1.03	0.94	0.955
NCI-H661	1.01	0.907	1.02	0.945	0.637	1.05	1.02	0.941	0.998	1.02	0.972	0.95	0.943	0.989	0.967	1.05	0.901	0.99
EKVX	1.02	1.04	0.883	1.1	0.772	1.08	0.939	0.947	1.04	0.952	0.873	0.719	1	0.928	0.925	0.773	0.608	0.862
NCI-H1650	0.895	0.764	0.818	0.799	0.587	0.89	0.816	0.922	1	0.774	0.745	0.45	0.997	0.736	0.843	0.855	0.705	0.782
HCC-827	1.08	0.709	0.247	0.198	0.192	1.07	1.1	1.01	1.11	1.05	1.02	1.04	1.04	1.02	1.01	0.31	0.186	1.09
NCI-H2170	0.974	0.987	1.06	1.01	0.9	0.894	0.991	0.949	1	0.913	0.969	1.04	0.944	0.917	1	0.97	0.989	0.995
